According to BigSolDB 2.1:

Q: For `CC1(C)O[C@H]2CC(=O)OC[C@]23[C@H]2CC[C@@]4(C)[C@H](c5ccoc5)OC(=O)[C@H]5O[C@]54[C@]2(C)C(=O)C[C@@H]13`, which solubility (mole fraction) (in acetone, 283.2 K) is on record?
A: 0.00409

Q: What about the solubility (mole fraction) (in acetone, 288.2 K) of the same molecule?
A: 0.00454

Q: What about the solubility (mole fraction) (in acetone, 293.2 K) of the same molecule?
A: 0.00465

Q: And the solubility (mole fraction) (in acetone, 298.2 K)?
A: 0.00471

Q: What about the solubility (mole fraction) (in acetone, 303.2 K) of the same molecule?
A: 0.00474

Q: What about the solubility (mole fraction) (in acetone, 308.2 K) of the same molecule?
A: 0.00497

Q: What about the solubility (mole fraction) (in acetone, 313.2 K) of the same molecule?
A: 0.00516

Q: And the solubility (mole fraction) (in acetone, 318.2 K)?
A: 0.0055

Q: And the solubility (mole fraction) (in methanol, 283.2 K)?
A: 7.08e-05

Q: And the solubility (mole fraction) (in methanol, 288.2 K)?
A: 7.81e-05

Q: What about the solubility (mole fraction) (in methanol, 293.2 K) of the same molecule?
A: 9.2e-05

Q: And the solubility (mole fraction) (in methanol, 298.2 K)?
A: 0.000101

Q: And the solubility (mole fraction) (in methanol, 303.2 K)?
A: 0.00012

Q: What about the solubility (mole fraction) (in methanol, 308.2 K) of the same molecule?
A: 0.000137

Q: And the solubility (mole fraction) (in methanol, 313.2 K)?
A: 0.000162

Q: And the solubility (mole fraction) (in methanol, 318.2 K)?
A: 0.000192

Q: And the solubility (mole fraction) (in water, 283.2 K)?
A: 1.17e-07

Q: What about the solubility (mole fraction) (in water, 288.2 K) of the same molecule?
A: 2.37e-07

Q: What about the solubility (mole fraction) (in water, 293.2 K) of the same molecule?
A: 4.77e-07

Q: What about the solubility (mole fraction) (in water, 298.2 K) of the same molecule?
A: 5.97e-07

Q: And the solubility (mole fraction) (in water, 303.2 K)?
A: 8.3e-07

Q: And the solubility (mole fraction) (in water, 308.2 K)?
A: 1.04e-06

Q: And the solubility (mole fraction) (in water, 313.2 K)?
A: 1.17e-06

Q: What about the solubility (mole fraction) (in water, 318.2 K) of the same molecule?
A: 1.49e-06
